Experimental data as given in patent US12492181B2, “Gem-disubstituted piperidine melanocortin subtype-2 receptor (MC2R) antagonists and uses thereof” (Crinetics Pharmaceuticals, Inc., priority 2019, dated 2025).

biological target: T1, hMC2 receptor (crude hMC2R membranes from CRE-bla-CHO-K1 cells stably expressing hMC2 receptor and hMRAP accessory protein) (Homo sapiens, UniProt Q01718); assay: hMC2 membrane binding assay ([125I]ACTH (1-39) Tyr23, SPA); conditions: displacement of 0.2 nM [125I]ACTH (1-39) Tyr23 from hMC2R membranes, 1.5 hours at room temperature; read-out: MC2R binding potency
T1 construct: crude membrane fractions
Summary of the method: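 Ki values come from non-linear regression of SPA scintillation counts, with compounds displacing [125I]ACTH(1-39) Tyr23. Membranes come from CRE-bla-CHO-K1 cells stably expressing hMC2 receptor together with hMRAP. They are preincubated with WGA-coated PVT SPA beads in 50 mM HEPES pH 7.4 with 0.20% BSA, Mg2+, Ca2+ and protease inhibitors.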

T1 sequence (Q01718 whole entry): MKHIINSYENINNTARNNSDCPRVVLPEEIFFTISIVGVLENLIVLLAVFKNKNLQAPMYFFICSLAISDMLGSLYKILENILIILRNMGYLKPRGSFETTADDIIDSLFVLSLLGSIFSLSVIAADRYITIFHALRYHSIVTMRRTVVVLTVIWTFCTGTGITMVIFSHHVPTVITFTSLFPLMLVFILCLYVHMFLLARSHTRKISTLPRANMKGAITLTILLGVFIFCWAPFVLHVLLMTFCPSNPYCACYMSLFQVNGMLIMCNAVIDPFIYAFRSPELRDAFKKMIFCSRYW
T1 sequence (Q8TCY5 whole entry partner): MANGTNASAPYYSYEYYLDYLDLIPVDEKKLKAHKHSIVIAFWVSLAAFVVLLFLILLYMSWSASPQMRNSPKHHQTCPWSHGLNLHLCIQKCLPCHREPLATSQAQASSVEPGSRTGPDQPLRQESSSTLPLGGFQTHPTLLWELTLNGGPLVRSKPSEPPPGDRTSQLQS

Row | Compound | Ki [nM]
1 | CCOc1ncccc1-c1ccc(C2(C(=O)NC3CN(C)CC3O)CCN(c3ccc(C(F)(F)F)cc3C#N)CC2)cn1 (single isomer, unassigned) [Compound 1-41, 1-[2-cyano-4-(trifluoromethyl)phenyl]-4-{2′-ethoxy-[2,3′-bipyridin]-5-yl}-N-[(3S,4S)*-4-hydroxy-1-methylpyrrolidin-3-yl]piperidine-4-carboxamide] | < 10
2 | CCOc1ncccc1-c1ccc(C2(C(=O)N[C@@H]3CCN(C)C3)CCN(c3ccc(C(F)(F)F)cc3C#N)CC2)cn1 [Compound 1-9, 1-[2-cyano-4-(trifluoromethyl)phenyl]-4-{2′-ethoxy-[2,3′-bipyridin]-5-yl}-N-[(3R)-1-methylpyrrolidin-3-yl]piperidine-4-carboxamide] | < 10
3 | CCOc1ncccc1-c1ncc(C2(C(=O)N[C@@H](C)CN(C)C)CCN(c3ccc(C(F)(F)F)cc3F)CC2)cc1F [Compound 1-312, N-[(2S)-1-(dimethylamino)propan-2-yl]-4-{2′-ethoxy-3-fluoro-[2,3′-bipyridin]-5-yl}-1-[2-fluoro-4-(trifluoromethyl)phenyl]piperidine-4-carboxamide] | < 10
4 | COc1ccccc1-c1ncc(C2(C(=O)N[C@@H]3CCN(C)C3)CCN(c3ccc(C(F)(F)F)cc3C#N)CC2)cc1F [Compound 1-126, 1-[2-cyano-4-(trifluoromethyl)phenyl]-4-[5-fluoro-6-(2-methoxyphenyl)pyridin-3-yl]-N-[(3R)-1-methylpyrrolidin-3-yl]piperidine-4-carboxamide] | < 10
5 | CCOc1ccccc1-c1ncc(C2(C(=O)N[C@@H]3CCN(C)C3)CCN(c3ccc(C(F)(F)F)cc3C#N)CC2)cc1F [Compound 1-123, 1-[2-cyano-4-(trifluoromethyl)phenyl]-4-[6-(2-ethoxyphenyl)-5-fluoropyridin-3-yl]-N-[(3R)-1-methylpyrrolidin-3-yl]piperidine-4-carboxamide] | < 10
6 | COc1ccccc1-c1ccc(C2(C(=O)NC[C@H]3CCN3C)CCN(c3ccc(C(F)(F)F)cc3C#N)CC2)cn1 [Compound 1-244, 1-[2-cyano-4-(trifluoromethyl)phenyl]-4-[6-(2-methoxyphenyl)pyridin-3-yl]-N-{[(2R)-1-methylazetidin-2-yl]methyl}piperidine-4-carboxamide] | < 10
7 | CCOc1ccccc1-c1ccc(C2(NC(=O)[C@H]3CCN(C)C3)CCN(c3ccc(Cl)cc3C#N)CC2)cn1 [Compound 2-28, (3S)—N-[1-(4-chloro-2-cyanophenyl)-4-[6-(2-ethoxyphenyl)pyridin-3-yl]piperidin-4-yl]-1-methylpyrrolidine-3-carboxamide] | < 10
8 | CN1CC[C@@H](NC(=O)C2(c3ccc(-c4cc5ccccc5n4C)nc3)CCN(c3ccc(C(F)(F)F)cc3C#N)CC2)C1 [Compound 1-191, 1-[2-cyano-4-(trifluoromethyl)phenyl]-4-[6-(1-methyl-1H-indol-2-yl)pyridin-3-yl]-N-[(3R)-1-methylpyrrolidin-3-yl]piperidine-4-carboxamide] | 10 to 100
9 | Cc1oncc1-c1ccc(C2(C(=O)N[C@@H]3CCN(C)C3)CCN(c3ccc(C(F)(F)F)cc3C#N)CC2)cn1 [Compound 1-157, 1-[2-cyano-4-(trifluoromethyl)phenyl]-4-[6-(5-methyl-1,2-oxazol-4-yl)pyridin-3-yl]-N-[(3R)-1-methylpyrrolidin-3-yl]piperidine-4-carboxamide] | 10 to 100
10 | COc1ncc(F)cc1-c1ccc(C2(C(=O)N[C@H]3CCN(C)C3)CCN(c3ccc(C(F)(F)F)cc3Cl)CC2)cn1 [Compound 1-154, 1-[2-chloro-4-(trifluoromethyl)phenyl]-4-{5′-fluoro-2′-methoxy-[2,3′-bipyridin]-5-yl}-N-[(3S)-1-methylpyrrolidin-3-yl]piperidine-4-carboxamide] | < 10

Now from value to compound:

Row | Ki [nM] | Compound
11 | < 10 | CCOc1ncccc1-c1ccc(C2(C(=O)NCCN(C)C)CCN(c3ccc(C(F)(F)F)cc3C#N)CC2)nn1 [Compound 1-331, 1-[2-cyano-4-(trifluoromethyl)phenyl]-N-[2-(dimethylamino)ethyl]-4-[6-(2-ethoxypyridin-3-yl)pyridazin-3-yl]piperidine-4-carboxamide]
12 | < 10 | CN1CC(C(=O)NC2(c3ccc(-c4cccn4C)nc3)CCN(c3ccc(C(F)(F)F)cc3C#N)CC2)C1 [Compound 2-45, N-{1-[2-cyano-4-(trifluoromethyl)phenyl]-4-[6-(1-methyl-1H-pyrrol-2-yl)pyridin-3-yl]piperidin-4-yl}-1-methylazetidine-3-carboxamide]
13 | < 10 | CCOc1ncccc1-c1ncc(C2(C(=O)NCCNC)CCN(c3ccc(C(F)(F)F)cc3F)CC2)cc1F [Compound 1-287, 4-{2′-ethoxy-3-fluoro-[2,3′-bipyridin]-5-yl}-1-[2-fluoro-4-(trifluoromethyl)phenyl]-N-[2-(methylamino)ethyl]piperidine-4-carboxamide]
14 | < 10 | COc1ccccc1-c1ncc(C2(C(=O)N[C@H]3CCN(C)C3)CCN(c3ccc(C(F)(F)F)cc3C#N)CC2)cc1F [Compound 1-127, 1-[2-cyano-4-(trifluoromethyl)phenyl]-4-[5-fluoro-6-(2-methoxyphenyl)pyridin-3-yl]-N-[(3S)-1-methylpyrrolidin-3-yl]piperidine-4-carboxamide]
15 | < 10 | CCOc1ncccc1-c1ccc(C2(C(=O)NCCN(C)C)CCN(c3ccc(C(F)(F)F)cc3C#N)CC2)cc1 [Compound 1-8, 1-[2-cyano-4-(trifluoromethyl)phenyl]-N-[2-(dimethylamino)ethyl]-4-[4-(2-ethoxypyridin-3-yl)phenyl]piperidine-4-carboxamide]
16 | < 10 | Cc1nocc1-c1ccc(C2(C(=O)N[C@H]3CCN(C)C3)CCN(c3ccc(C(F)(F)F)cc3C#N)CC2)cn1 [Compound 1-149, 1-[2-cyano-4-(trifluoromethyl)phenyl]-4-[6-(3-methyl-1,2-oxazol-4-yl)pyridin-3-yl]-N-[(3S)-1-methylpyrrolidin-3-yl]piperidine-4-carboxamide]
17 | < 10 | CCOc1ncccc1-c1ccc(C2(C(=O)N[C@@H](C)CNC)CCN(c3ccc(Cl)cc3Cl)CC2)cn1 [Compound 1-322, 1-(2,4-dichlorophenyl)-4-{2′-ethoxy-[2,3′-bipyridin]-5-yl}-N-[(2S)-1-(methylamino)propan-2-yl]piperidine-4-carboxamide]
18 | < 10 | CN1CC[C@H](NC(=O)C2(c3cnc(-c4cccn4C)c(F)c3)CCN(c3ccc(C(F)(F)F)cc3Cl)CC2)C1 [Compound 1-162, 1-[2-chloro-4-(trifluoromethyl)phenyl]-4-[5-fluoro-6-(1-methyl-1H-pyrrol-2-yl)pyridin-3-yl]-N-[(3S)-1-methylpyrrolidin-3-yl]piperidine-4-carboxamide]
19 | < 10 | Cn1cccc1-c1ccc(C2(C(=O)NC[C@H]3CCCN3)CCN(c3ccc(C(F)(F)F)cc3C#N)CC2)cn1 [Compound 1-231, 1-[2-cyano-4-(trifluoromethyl)phenyl]-4-[6-(1-methyl-1H-pyrrol-2-yl)pyridin-3-yl]-N-{[(2R)-pyrrolidin-2-yl]methyl}piperidine-4-carboxamide]
20 | < 10 | CN(CCNC(=O)C1(c2ccc(-c3cccn3C)nc2)CCN(c2ccc(C(F)(F)F)cc2C#N)CC1)C1CC1 [Compound 1-266, 1-[2-cyano-4-(trifluoromethyl)phenyl]-N-{2-[cyclopropyl(methyl)amino]ethyl}-4-[6-(1-methyl-1H-pyrrol-2-yl)pyridin-3-yl]piperidine-4-carboxamide]
